Legend:
[1] = biological target: LOK/STK10 (Homo sapiens, UniProt O94804); conditions: 1 μM; Run 1, Run 2
[2] = biological target: T1, Haspin (Homo sapiens, UniProt Q8TF76); conditions: 1 μM; Run 1, Run 2
T1 sequence (Q8TF76 1-798): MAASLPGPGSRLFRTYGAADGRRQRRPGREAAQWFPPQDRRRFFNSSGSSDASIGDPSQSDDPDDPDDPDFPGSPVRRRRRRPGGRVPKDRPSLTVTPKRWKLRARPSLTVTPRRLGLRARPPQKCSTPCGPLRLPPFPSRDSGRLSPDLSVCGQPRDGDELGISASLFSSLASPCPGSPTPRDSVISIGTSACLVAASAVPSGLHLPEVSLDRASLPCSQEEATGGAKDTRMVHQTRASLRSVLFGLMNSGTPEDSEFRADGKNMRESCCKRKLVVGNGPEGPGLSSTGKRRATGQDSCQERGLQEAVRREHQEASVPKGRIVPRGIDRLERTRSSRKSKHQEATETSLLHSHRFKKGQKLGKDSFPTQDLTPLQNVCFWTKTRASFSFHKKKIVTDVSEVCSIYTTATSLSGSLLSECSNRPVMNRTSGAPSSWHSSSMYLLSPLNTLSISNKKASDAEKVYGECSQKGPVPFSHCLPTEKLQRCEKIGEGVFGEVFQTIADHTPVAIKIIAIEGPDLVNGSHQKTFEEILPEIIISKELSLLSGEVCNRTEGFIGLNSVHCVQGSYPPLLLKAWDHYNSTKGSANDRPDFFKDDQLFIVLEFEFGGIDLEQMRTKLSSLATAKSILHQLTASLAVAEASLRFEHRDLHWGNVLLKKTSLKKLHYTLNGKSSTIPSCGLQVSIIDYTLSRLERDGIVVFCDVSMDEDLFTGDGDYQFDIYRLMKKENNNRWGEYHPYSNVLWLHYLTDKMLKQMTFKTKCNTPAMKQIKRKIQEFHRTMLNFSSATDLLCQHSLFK

[3] = biological target: T2, MEKK2 (Homo sapiens, UniProt Q9Y2U5); conditions: 1 μM; Run 1, Run 2
T2 sequence (Q9Y2U5 1-619): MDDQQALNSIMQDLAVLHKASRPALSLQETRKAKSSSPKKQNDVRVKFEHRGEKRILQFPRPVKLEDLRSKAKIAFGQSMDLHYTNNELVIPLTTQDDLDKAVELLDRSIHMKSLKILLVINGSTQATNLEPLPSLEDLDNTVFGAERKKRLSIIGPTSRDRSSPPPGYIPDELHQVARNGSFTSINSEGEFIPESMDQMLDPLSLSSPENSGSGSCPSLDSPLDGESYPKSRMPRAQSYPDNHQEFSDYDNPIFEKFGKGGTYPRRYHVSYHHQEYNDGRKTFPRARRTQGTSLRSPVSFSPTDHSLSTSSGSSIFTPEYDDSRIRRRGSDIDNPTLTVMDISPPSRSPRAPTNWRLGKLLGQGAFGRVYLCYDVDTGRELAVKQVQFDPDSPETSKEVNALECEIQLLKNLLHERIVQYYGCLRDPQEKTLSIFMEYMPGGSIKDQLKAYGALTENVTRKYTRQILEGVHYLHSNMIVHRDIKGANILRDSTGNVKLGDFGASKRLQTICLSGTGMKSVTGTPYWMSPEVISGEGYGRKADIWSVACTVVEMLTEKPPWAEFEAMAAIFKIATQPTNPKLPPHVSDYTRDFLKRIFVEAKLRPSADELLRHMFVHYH

[4] = biological target: T3, EPHB1 (Homo sapiens, UniProt P54762); conditions: 1 μM; Run 1, Run 2
T3 sequence (P54762 18-984): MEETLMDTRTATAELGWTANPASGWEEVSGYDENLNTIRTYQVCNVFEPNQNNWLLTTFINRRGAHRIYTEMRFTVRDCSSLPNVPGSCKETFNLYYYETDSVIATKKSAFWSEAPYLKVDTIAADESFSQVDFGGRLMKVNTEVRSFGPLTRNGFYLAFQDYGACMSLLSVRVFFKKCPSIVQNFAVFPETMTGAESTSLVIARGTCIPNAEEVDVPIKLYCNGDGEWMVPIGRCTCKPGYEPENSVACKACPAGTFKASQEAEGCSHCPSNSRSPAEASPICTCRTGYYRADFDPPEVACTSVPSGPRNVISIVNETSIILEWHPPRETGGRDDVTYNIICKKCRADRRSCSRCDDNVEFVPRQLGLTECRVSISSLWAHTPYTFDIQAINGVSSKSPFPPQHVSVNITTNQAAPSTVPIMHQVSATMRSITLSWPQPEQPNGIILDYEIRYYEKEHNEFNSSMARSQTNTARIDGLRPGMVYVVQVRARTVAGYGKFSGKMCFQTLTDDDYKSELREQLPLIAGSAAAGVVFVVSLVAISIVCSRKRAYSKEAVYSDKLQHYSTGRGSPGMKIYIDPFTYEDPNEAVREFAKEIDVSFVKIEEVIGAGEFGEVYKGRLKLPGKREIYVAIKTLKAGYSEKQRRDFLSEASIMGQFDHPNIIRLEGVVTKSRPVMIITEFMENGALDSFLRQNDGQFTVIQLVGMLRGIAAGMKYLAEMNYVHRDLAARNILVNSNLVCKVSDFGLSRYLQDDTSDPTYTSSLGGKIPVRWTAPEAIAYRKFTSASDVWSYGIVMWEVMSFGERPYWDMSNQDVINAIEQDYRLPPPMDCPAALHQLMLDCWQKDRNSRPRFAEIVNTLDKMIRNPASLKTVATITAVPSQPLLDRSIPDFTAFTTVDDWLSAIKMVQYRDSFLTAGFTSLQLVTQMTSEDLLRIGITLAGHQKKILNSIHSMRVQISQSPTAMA

[5] = biological target: TRKB (Homo sapiens, UniProt Q16620); experiment: biochemical; conditions: read-out: % enzyme activity, 1 μM; Run 1, Run 2
Sequence of TRKB (Q16620 32-822): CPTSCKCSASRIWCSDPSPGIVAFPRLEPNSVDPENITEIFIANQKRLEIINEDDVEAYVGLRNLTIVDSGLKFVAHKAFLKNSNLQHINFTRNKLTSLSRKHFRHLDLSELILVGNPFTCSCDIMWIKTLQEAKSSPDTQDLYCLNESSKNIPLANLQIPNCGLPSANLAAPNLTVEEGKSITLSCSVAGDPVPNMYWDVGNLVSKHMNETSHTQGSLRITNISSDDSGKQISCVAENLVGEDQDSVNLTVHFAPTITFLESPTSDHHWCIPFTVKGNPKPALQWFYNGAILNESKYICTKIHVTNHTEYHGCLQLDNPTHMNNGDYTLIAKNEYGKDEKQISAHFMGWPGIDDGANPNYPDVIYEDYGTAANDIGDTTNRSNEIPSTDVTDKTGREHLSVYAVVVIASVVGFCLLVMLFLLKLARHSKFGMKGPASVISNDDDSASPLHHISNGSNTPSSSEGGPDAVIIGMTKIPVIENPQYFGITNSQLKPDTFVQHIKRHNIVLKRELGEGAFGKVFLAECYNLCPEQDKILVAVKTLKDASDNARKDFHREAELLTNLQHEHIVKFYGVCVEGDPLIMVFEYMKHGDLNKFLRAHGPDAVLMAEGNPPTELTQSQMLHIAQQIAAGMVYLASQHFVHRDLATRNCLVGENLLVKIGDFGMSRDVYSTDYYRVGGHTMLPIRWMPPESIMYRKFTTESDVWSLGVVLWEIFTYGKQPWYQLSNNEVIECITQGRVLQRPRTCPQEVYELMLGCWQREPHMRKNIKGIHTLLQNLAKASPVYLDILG

Sequence of LOK/STK10 (O94804 whole entry): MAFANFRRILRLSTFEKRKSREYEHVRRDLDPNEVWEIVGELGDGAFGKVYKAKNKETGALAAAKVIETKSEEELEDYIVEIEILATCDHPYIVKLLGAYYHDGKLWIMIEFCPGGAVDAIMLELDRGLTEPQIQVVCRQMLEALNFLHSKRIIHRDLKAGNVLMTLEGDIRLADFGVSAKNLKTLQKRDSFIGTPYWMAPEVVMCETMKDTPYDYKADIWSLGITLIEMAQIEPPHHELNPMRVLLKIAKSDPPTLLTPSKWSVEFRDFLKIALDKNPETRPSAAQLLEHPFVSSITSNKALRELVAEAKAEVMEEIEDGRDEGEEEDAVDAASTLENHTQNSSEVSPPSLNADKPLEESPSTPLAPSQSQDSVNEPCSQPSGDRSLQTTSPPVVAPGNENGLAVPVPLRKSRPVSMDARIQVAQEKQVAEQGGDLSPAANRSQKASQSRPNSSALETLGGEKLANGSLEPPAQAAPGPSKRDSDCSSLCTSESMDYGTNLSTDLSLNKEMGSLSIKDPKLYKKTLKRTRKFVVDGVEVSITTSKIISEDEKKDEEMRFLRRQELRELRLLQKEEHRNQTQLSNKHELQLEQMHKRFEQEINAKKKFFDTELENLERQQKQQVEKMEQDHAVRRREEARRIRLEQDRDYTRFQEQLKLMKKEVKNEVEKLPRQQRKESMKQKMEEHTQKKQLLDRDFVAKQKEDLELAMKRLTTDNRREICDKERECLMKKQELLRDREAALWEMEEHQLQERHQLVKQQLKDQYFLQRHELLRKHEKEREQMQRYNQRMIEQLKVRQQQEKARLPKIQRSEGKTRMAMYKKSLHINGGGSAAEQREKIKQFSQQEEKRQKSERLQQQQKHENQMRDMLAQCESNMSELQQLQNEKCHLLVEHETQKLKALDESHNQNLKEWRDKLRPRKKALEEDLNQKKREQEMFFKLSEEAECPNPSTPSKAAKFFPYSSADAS

| Structure (SMILES) | % enzyme activity [1] | % enzyme activity [2] | % enzyme activity [3] | % enzyme activity [4] | remaining activity at 1 µM [5] |
| --- | --- | --- | --- | --- | --- |
| COc1cc(-c2cncc(-c3ccc(N4CCN(C)CC4)cc3)c2C)cc(F)c1C(N)=O [Compound 26a, 2-Fluoro-6-methoxy-4-(4-methyl-5-(4-(4-methylpiperazin-1-yl)phenyl)pyridin-3-yl)benzamide] | 51.51% | 82.77% | 95.51% | 91.99% | 100% |
| COc1cc(-c2cncc(-c3ccc(N4C[C@@H](C)N(C)[C@@H](C)C4)cc3)c2C)cc(F)c1C(N)=O [Compound 26c, 2-Fluoro-6-methoxy-4-(4-methyl-5-(4-((3R,5S)-3,4,5-trimethylpiperazin-1-yl)phenyl)pyridin-3-yl)benzamide] | 68.53% | 82.31% | 100.62% | 89.37% | 99% |
